Results from ChEMBL document CHEMBL1201862, “PubChem BioAssay data set” (2004).
Calls of active or inactive are those of the source.

What was measured:
[1] = molecular target: Melanin-concentrating hormone receptor 1 (Homo sapiens, UniProt Q99705); assay: Late-stage fluorescence-based counterscreen for antagonists of the G-protein coupled receptor 7 (GPR7): cell-based dose response assay to identify antagonists of the melanin-concentrating hormone receptor 1 (MCHR1) Set 6.; assay type: functional
Melanin-concentrating hormone receptor 1, sequence (Q99705 whole entry): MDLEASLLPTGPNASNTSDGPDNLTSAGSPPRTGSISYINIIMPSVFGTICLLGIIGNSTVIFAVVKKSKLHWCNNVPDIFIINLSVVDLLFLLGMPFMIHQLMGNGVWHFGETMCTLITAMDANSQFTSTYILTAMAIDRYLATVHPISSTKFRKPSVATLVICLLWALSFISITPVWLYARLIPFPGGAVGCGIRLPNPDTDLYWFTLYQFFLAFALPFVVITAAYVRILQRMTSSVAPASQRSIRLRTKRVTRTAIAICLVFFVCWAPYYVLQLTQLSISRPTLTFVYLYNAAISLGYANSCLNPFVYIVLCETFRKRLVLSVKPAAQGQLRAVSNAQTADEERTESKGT

[2] = molecular target: T1, Neuropeptides B/W receptor type 1 (Homo sapiens, UniProt P48145); assay: GPR7 antagonist potency, late-stage follow-up, cell-based, fluorescence, dose response, set 6 (AID 588583); assay type: functional
T1 sequence (P48145 whole entry): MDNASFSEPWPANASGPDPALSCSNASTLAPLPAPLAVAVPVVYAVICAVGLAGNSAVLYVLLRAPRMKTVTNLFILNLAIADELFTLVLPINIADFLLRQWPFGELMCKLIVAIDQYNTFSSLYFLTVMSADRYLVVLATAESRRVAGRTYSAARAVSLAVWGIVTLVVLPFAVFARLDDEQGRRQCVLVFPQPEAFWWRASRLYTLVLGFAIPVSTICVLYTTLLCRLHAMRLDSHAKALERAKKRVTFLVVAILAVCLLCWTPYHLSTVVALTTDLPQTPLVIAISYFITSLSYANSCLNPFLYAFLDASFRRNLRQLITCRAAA

[3] = molecular target: T2, Replicative DNA helicase DnaB (Mycobacterium tuberculosis, UniProt P9WMR3); assay: DnaB intein splicing inhibitors, dose response, biochemical, cell-free fluorescence (AID 449749); assay type: functional
T2 sequence (P9WMR3 whole entry): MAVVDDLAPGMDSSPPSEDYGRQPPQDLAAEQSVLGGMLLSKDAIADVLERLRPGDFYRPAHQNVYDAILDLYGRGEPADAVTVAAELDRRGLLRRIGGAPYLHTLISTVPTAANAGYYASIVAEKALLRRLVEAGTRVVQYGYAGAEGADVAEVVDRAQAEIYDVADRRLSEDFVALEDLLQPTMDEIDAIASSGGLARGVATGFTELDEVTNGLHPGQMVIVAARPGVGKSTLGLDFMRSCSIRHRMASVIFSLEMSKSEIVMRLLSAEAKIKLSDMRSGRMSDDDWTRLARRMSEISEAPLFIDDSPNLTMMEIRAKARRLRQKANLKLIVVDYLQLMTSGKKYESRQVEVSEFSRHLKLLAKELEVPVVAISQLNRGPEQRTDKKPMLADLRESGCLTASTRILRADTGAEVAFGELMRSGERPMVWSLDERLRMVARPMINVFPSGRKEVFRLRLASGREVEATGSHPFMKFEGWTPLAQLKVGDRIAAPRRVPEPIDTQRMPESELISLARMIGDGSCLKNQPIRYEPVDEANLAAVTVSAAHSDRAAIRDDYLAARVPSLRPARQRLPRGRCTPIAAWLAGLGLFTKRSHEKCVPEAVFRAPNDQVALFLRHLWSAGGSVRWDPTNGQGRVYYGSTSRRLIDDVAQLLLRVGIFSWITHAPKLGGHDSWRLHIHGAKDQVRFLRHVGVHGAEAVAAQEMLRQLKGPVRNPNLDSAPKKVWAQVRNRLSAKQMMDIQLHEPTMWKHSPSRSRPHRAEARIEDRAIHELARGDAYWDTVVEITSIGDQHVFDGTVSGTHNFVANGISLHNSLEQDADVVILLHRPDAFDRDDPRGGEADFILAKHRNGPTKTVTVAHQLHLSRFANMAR

[4] = molecular target: T3, High affinity choline transporter 1 (Homo sapiens, UniProt Q9GZV3); assay: CHT inhibitors, dose response, cell-based, 5-point CRC, membrane potential dye (AID 504840); assay type: functional
T3 sequence (Q9GZV3 whole entry): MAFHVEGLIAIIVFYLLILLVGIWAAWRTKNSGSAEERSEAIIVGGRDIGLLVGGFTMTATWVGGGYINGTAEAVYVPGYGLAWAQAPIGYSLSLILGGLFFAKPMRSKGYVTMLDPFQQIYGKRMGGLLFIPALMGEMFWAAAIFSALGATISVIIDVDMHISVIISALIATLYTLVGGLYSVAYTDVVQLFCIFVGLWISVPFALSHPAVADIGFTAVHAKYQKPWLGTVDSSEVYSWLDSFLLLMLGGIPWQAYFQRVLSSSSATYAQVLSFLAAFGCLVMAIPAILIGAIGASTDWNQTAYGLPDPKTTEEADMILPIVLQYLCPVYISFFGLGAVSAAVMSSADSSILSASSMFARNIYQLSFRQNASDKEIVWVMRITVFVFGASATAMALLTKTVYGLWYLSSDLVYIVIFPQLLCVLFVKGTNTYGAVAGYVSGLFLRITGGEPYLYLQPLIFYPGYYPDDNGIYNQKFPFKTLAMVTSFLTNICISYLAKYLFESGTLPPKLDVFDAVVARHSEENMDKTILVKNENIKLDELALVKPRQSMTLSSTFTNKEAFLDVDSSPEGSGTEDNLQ

[5] = molecular target: T4, Protein RecA (Mycobacterium tuberculosis, UniProt P9WHJ3); assay: Fluorescence Cell-Free Homogeneous Dose Retest to Identify Inhibitors of RecA-Intein Splicing Activity. [Related pubchem assays (depositor defined):AID2097, AID2223, AID489010, AID492950]; assay type: functional
T4 sequence (P9WHJ3 whole entry): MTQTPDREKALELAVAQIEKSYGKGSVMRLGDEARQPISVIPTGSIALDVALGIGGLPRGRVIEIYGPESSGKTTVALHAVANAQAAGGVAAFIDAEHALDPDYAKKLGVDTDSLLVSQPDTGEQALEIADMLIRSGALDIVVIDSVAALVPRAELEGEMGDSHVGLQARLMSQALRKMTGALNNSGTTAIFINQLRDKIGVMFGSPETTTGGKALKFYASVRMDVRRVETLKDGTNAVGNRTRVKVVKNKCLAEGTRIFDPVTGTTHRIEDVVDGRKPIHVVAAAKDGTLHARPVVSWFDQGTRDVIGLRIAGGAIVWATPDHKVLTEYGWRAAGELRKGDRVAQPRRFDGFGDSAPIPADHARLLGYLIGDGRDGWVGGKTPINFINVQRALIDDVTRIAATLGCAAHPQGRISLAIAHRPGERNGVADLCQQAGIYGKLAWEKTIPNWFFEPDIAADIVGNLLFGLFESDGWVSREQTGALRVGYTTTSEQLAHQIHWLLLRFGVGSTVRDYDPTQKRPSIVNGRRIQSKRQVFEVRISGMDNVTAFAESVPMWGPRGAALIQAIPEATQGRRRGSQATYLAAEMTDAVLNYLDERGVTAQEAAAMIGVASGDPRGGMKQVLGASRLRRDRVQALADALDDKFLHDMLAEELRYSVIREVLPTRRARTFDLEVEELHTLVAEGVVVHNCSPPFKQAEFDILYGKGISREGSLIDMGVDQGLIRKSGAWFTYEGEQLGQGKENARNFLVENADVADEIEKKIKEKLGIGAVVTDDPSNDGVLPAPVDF

[6] = test system: Vero; assay: cells; assay type: functional; details: Chlorocebus sabaeus
[7] = molecular target: T3, High affinity choline transporter 1; assay: CHT inhibitors, dose response, cell-based, 10-point CRC, membrane potential dye (AID 588401); assay type: functional;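 note: membrane potential dye fluorescence of choline-evoked depolarization via CHT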
[8] = Shn3 3'UTR reporter inhibitors, dose response, cell-based, Clone20 osteoblasts, firefly luciferase, cherry-picked (AID 624132); assay type: functional;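 note: firefly luciferase luminescence from reporter carrying the Shn3 3'UTR in osteoblasts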
[9] = HepG2 cell cytotoxicity, dose response, cytotoxicity control for Shn3 inhibitor project, CellTiter-Glo, cherry-picked (AID 624134); assay type: functional, cell-based
[10] = control 3'UTR Renilla luciferase suppression, dose response, counter-screen for Shn3 inhibitor project, cell-based, Clone20-Shn3RL, cherry-picked (AID 624133); assay type: functional

O=c1c(-c2cccc(F)c2)c(Br)cnn1Cc1cccc2ccccc12
IC50 [1]: 0.533 µM (active) | IC50 [2]: 0.533 µM (active)

Cc1nnc(NC(=O)c2nc(S(=O)(=O)Cc3ccccc3)ncc2Cl)s1
AC50 [3]: 17.8 µM (active) | IC50 [4]: 7.31 µM (active) | EC50 [5]: 4.01 µM (active) | CC50 [6]: 17.8 µM (active) | IC50 [7]: 4.47 µM (active) | AC50 [8]: 1.34 µM (active) | AC50 [9]: > 70 µM (inactive) | AC50 [10]: 12.8 µM (active)
